Assay results: PubChem BioAssay AID2060498 (Molecular Pharmacology Branch, DTP, NCI, 2025)

System: 171881-019-R-J1-PDC tumor spheroids, viability
Experiment: Anticancer human tumor 171881-019-R-J1-PDC patient-derived invasive breast carcinoma cell line growth inhibition [GQUAD]
Conditions: spheroids with HUVEC and MSC; for IC50: curve of first compound; for viability, T/C: stronger effect = lower value; active means viability on the fitted dose curve at most 10% of control; inactive means the rest
How it was run: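 Viability of tumor cells grown as complex spheroids with endothelial and stromal cells, exposed to drug combinations. Top concentration at or near clinical Cmax (else 10 microM), diluted in half-log increments.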

[1] = second compound 0.0316 µM, first compound 0.0316 µM
[2] = second compound 0.0316 µM, first compound 0.1 µM
[3] = second compound 0.0316 µM, first compound 0.316 µM
[4] = second compound 0.0316 µM, first compound 1 µM
[5] = second compound 0.0316 µM, first compound 3.16 µM
[6] = second compound 0.0316 µM, first compound 10 µM
[7] = second compound 0.1 µM, first compound 0.0316 µM
[8] = second compound 0.1 µM, first compound 0.1 µM
[9] = second compound 0.1 µM, first compound 0.316 µM
[10] = second compound 0.1 µM, first compound 1 µM
[11] = second compound 0.1 µM, first compound 3.16 µM
[12] = second compound 0.1 µM, first compound 10 µM
[13] = second compound 0.316 µM, first compound 0.0316 µM
[14] = second compound 0.316 µM, first compound 0.1 µM
[15] = second compound 0.316 µM, first compound 0.316 µM
[16] = second compound 0.316 µM, first compound 1 µM
[17] = second compound 0.316 µM, first compound 3.16 µM
[18] = second compound 0.316 µM, first compound 10 µM
[19] = second compound 1 µM, first compound 0.0316 µM
[20] = second compound 1 µM, first compound 0.1 µM
[21] = second compound 1 µM, first compound 0.316 µM
[22] = second compound 1 µM, first compound 1 µM
[23] = second compound 1 µM, first compound 3.16 µM
[24] = second compound 1 µM, first compound 10 µM
[25] = second compound 3.16 µM, first compound 0.0316 µM
[26] = second compound 3.16 µM, first compound 0.1 µM
[27] = second compound 3.16 µM, first compound 0.316 µM
[28] = second compound 3.16 µM, first compound 1 µM
[29] = second compound 3.16 µM, first compound 3.16 µM
[30] = second compound 3.16 µM, first compound 10 µM
[31] = second compound 10 µM, first compound 0.0316 µM
[32] = second compound 10 µM, first compound 0.1 µM
[33] = second compound 10 µM, first compound 0.316 µM
[34] = second compound 10 µM, first compound 1 µM
[35] = second compound 10 µM, first compound 3.16 µM
[36] = second compound 10 µM, first compound 10 µM
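Wherever viability, T/C is given: 100% = DMSO vehicle control viability.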

C=CC(=O)N1CCN(c2nc(=O)n(-c3c(C)ccnc3C(C)C)c3nc(-c4c(O)cccc4F)c(F)cc23)C(C)C1 (stereo unspecified) + CN(C)c1ccc(Nc2c3ccc(NC(=O)CCN4CCCC4)cc3nc3cc(NC(=O)CCN4CCCC4)ccc23)cc1
active: viability, T/C [25] 1.61% | viability, T/C [26] 1.65% | viability, T/C [27] 1.29% | viability, T/C [28] 1.13% | viability, T/C [29] 2.03% | viability, T/C [30] 1.73% | viability, T/C [31] 0.27% | viability, T/C [32] 0.5% | viability, T/C [33] 0.42% | viability, T/C [34] 0.9% | viability, T/C [35] 0.45% | viability, T/C [36] 0.56%
7360 nM: IC50 (second compound 0.316 µM)
> 10000 nM: IC50 (second compound 0.0316 µM) | IC50 (second compound 0.1 µM)
inactive: viability, T/C [1] 98.3% | viability, T/C [2] 104% | viability, T/C [3] 102% | viability, T/C [4] 117% | viability, T/C [5] 99.3% | viability, T/C [6] 53.5% | viability, T/C [7] 94.8% | viability, T/C [8] 115% | viability, T/C [9] 111% | viability, T/C [10] 119% | viability, T/C [11] 96.9% | viability, T/C [12] 59.3% | viability, T/C [13] 79.3% | viability, T/C [14] 75.8% | viability, T/C [15] 69.8% | viability, T/C [16] 70% | viability, T/C [17] 70.6% | viability, T/C [18] 42.9% | viability, T/C [19] 19% | viability, T/C [20] 16% | viability, T/C [21] 18.6% | viability, T/C [22] 17.1% | viability, T/C [23] 15.3% | viability, T/C [24] 10.2%
< 31.6 nM: IC50 (second compound 1 µM) | IC50 (second compound 3.16 µM) | IC50 (second compound 10 µM)

CCc1c2c(nc3ccc(O)cc13)-c1cc3c(c(=O)n1C2)COC(=O)[C@]3(O)CC + CN(C)c1ccc(Nc2c3ccc(NC(=O)CCN4CCCC4)cc3nc3cc(NC(=O)CCN4CCCC4)ccc23)cc1
4.32 nM: IC50 (second compound 0.316 µM)
8 nM: IC50 (second compound 0.0316 µM)
< 0.999 nM: IC50 (second compound 1 µM) | IC50 (second compound 3.16 µM) | IC50 (second compound 10 µM)
active: viability, T/C (second compound 1 µM, first compound 0.0999 µM) 7.94% | viability, T/C [21] 6.83% | viability, T/C (second compound 3.16 µM, first compound 0.000999 µM) 2.04% | viability, T/C (second compound 3.16 µM, first compound 0.00316 µM) 1.12% | viability, T/C (second compound 3.16 µM, first compound 0.00999 µM) 2.08% | viability, T/C [25] 1.29% | viability, T/C (second compound 3.16 µM, first compound 0.0999 µM) 1.67% | viability, T/C [27] 1.67% | viability, T/C (second compound 10 µM, first compound 0.000999 µM) 0.56% | viability, T/C (second compound 10 µM, first compound 0.00316 µM) 0.37% | viability, T/C (second compound 10 µM, first compound 0.00999 µM) 0.38% | viability, T/C [31] 0.48% | viability, T/C (second compound 10 µM, first compound 0.0999 µM) 0.49% | viability, T/C [33] 0.16%
7.74 nM: IC50 (second compound 0.1 µM)
inactive: viability, T/C (second compound 0.0316 µM, first compound 0.000999 µM) 91.8% | viability, T/C (second compound 0.0316 µM, first compound 0.00316 µM) 56.5% | viability, T/C (second compound 0.0316 µM, first compound 0.00999 µM) 49.2% | viability, T/C [1] 42.3% | viability, T/C (second compound 0.0316 µM, first compound 0.0999 µM) 33.4% | viability, T/C [3] 24.8% | viability, T/C (second compound 0.1 µM, first compound 0.000999 µM) 94.9% | viability, T/C (second compound 0.1 µM, first compound 0.00316 µM) 55.6% | viability, T/C (second compound 0.1 µM, first compound 0.00999 µM) 50.2% | viability, T/C [7] 43.8% | viability, T/C (second compound 0.1 µM, first compound 0.0999 µM) 32.4% | viability, T/C [9] 27.4% | viability, T/C (second compound 0.316 µM, first compound 0.000999 µM) 77.1% | viability, T/C (second compound 0.316 µM, first compound 0.00316 µM) 51.1% | viability, T/C (second compound 0.316 µM, first compound 0.00999 µM) 42.2% | viability, T/C [13] 30.9% | viability, T/C (second compound 0.316 µM, first compound 0.0999 µM) 30.3% | viability, T/C [15] 22% | viability, T/C (second compound 1 µM, first compound 0.000999 µM) 16.3% | viability, T/C (second compound 1 µM, first compound 0.00316 µM) 12.6% | viability, T/C (second compound 1 µM, first compound 0.00999 µM) 17% | viability, T/C [19] 11%

Cc1cccc(N(C)C(=O)C2C(O)CCN2c2nc(C)cc(C(F)(F)F)c2C#N)c1 (stereo unspecified) + CN(C)c1ccc(Nc2c3ccc(NC(=O)CCN4CCCC4)cc3nc3cc(NC(=O)CCN4CCCC4)ccc23)cc1
inactive: viability, T/C [1] 87.6% | viability, T/C [2] 91.2% | viability, T/C [3] 103% | viability, T/C [4] 101% | viability, T/C [5] 87.6% | viability, T/C [6] 79.2% | viability, T/C [7] 99.2% | viability, T/C [8] 102% | viability, T/C [9] 96.4% | viability, T/C [10] 105% | viability, T/C [11] 85.6% | viability, T/C [12] 75.2% | viability, T/C [13] 88.3% | viability, T/C [14] 93.5% | viability, T/C [15] 85.2% | viability, T/C [16] 75.1% | viability, T/C [17] 75.7% | viability, T/C [18] 43.3% | viability, T/C [19] 26.3% | viability, T/C [20] 23.1% | viability, T/C [21] 31.7% | viability, T/C [22] 23.1% | viability, T/C [23] 19.1% | viability, T/C [24] 9.15%
7840 nM: IC50 (second compound 0.316 µM)
> 10000 nM: IC50 (second compound 0.0316 µM) | IC50 (second compound 0.1 µM)
active: viability, T/C [25] 1.62% | viability, T/C [26] 1.75% | viability, T/C [27] 1.5% | viability, T/C [28] 1.54% | viability, T/C [29] 1.07% | viability, T/C [30] 1.26% | viability, T/C [31] 0.45% | viability, T/C [32] 0.54% | viability, T/C [33] 0.26% | viability, T/C [34] 0.48% | viability, T/C [35] 0.65% | viability, T/C [36] 0.44%
< 31.6 nM: IC50 (second compound 1 µM) | IC50 (second compound 3.16 µM) | IC50 (second compound 10 µM)
